# Experimental data from patent US20150299648A1, “IMPROVED CULTIVATION MEDIA AND PROCESS FOR IMPROVED PROTEIN PRODUCTION BY PICHIA STRAINS” (priority 2012, published 2015).
# Entries after “also recorded” stand apart in the source; their conditions may differ.
# Experiments:
# [1] = system: P. pastrois strain yGLY21058; experiment: Fermentability of sugars or sugar alcohols on M agar plate; type: cell-based, Pichia pastoris; settings: 6 days at 30° C.; for Fermentability category from colony formation on the plate: minimal agar plate; for Growth on M agar: single carbon source 1% w/v
# Procedure: The 1 mL of RCB (Research Cell Bank in 20% of glycerol) for P. pastrois strain yGLY21058 producing glycosylated insulin precursor (GIP) was inoculated in 200 mL of Seed medium (4% glycerol, 1% yeast extract, 2% soytone, 1.34% YNB without amino acids, 0.23% K2HPO4, 1.19% KH2PO4, 8 μg/L biotin) and cultivated for 48 h at 24° C. The cell pellet was harvested by centrifugation at 4,000 rpm for 10 min and re-suspended with PBS buffer (pH 7.4) to wash the cell twice. The 0.1 mL of cell suspension with wash buffer was transferred and spread onto the minimal agar plate containing each sugar or sugar alcohol (1% w/v), which is listed in Table 1.
# YPD (1% yeast extract, 2% yeast peptone, and 1% glucose) agar plate was used for the positive control and a minimal agar plate without carbon sources (M) was used for negative control. Growth of Pichia pastoris on M agar plate containing single carbon source was categorized as no (−), slow (+), moderate (++), and fast (+++) colony formation for 6 days in Table 1.
# [2] = system: P. pastoris YGLY21058 strain producing glycosylated insulin precursor (GIP); experiment: Screening of sugars and sugar alcohols as osmoprotectants in fed-batch cultivation; type: cell-based, Pichia pastoris; settings: for Index of cell lysis (double stranded DNA released into culture medium): 50 g/L in initial batch BSGY, 80 h of induction; for Intact GIP molecule after 80 h-induction (SDS-PAGE): 50 g/L in initial batch medium of BSGY
# Procedure: The P. pastoris YGLY21058 strain was cultivated in 1 L glass bioreactors (DASGIP, Germany). For fermentation in 1 L bioreactor, a vial (1 mL) of RCB (Research Cell Bank) was inoculated into 200 mL of Seed medium in 1 L-baffled flask. The culture incubated at 24° C., while shaking on an orbital shaker at 180 rpm for 48±4 h. The bioreactor was inoculated with a 10% volumetric ratio of seed to initial BSGY medium. Cultivation conditions were following: temperature set at 24±0.5° C., pH controlled at 6.5±0.1 with 30% ammonium hydroxide, dissolved oxygen was maintained at 20% of saturation by cascading agitation rate on the addition of pure oxygen to the fixed airflow rate of 0.7 vvm. After depletion of the initial glycerol (4%), a 50% glycerol solution containing 12.5 mL/L of PTM1 salts (6.5 g FeSO4.7H2O, 2.0 g ZnCl2, 0.6 g CuSO4.5H2O, 3.0 g MnSO4.7H2O, 0.5 g CoCl2.6H2O, 0.2 g NaMoO4.2H2O, 0.2 g biotin, 80 mg NaI, 20 mg H3BO4 per L) was fed constantly at an initial rate of 0.08 h^−1 for 8 h. Induction was initiated after a 30 min starvation phase when methanol was fed. Methanol was fed constantly starting at 1.33 g/L/h under methanol limited condition. Agitation speed was changed from cascade mode with agitation speed and pure oxygen.
# For comparisons, each sugar or sugar alcohol was added at 50 g/L in initial batch medium of BSGY. In case of control without sugar supplementation (BSGY medium only), glycosylated insulin precursor (GIP) was detectable at 58 h of induction, but not detected at 80 h of induction due to most likely proteolytic degradation caused by heavy cell lysis (Lanes 1 and 2 of FIG. 2 A).
# [3] = Osmolality of sugar and sugar alcohol solutions (osmometer); type: physicochemical; settings: 500 mM in water
# Procedure: The sugar and sugar alcohol solutions used as osmoprotectant supplements were prepared at 500 mM in water and their osmolalities were measured using Osmometer (Multi-somotte, Model 2430, Precision Systems Inc, MA, USA). The osmolality of solution was directly proportional to the concentration of component in solution. For instance there was a linear relationship between sorbitol concentration (mM) and osmolality of the solution (mOsm/kg) as shown in FIG. 1A. The osmolalities of maltitol, sorbitol, glycerol, and glucose at 500 mM in water were 590±4, 544±3, 541±3, and 568±0 mOsm/kg respectively (FIG. 1B). The osmolaties of sorbose, mellibiose, ribose, quinic acid and myo-inositol at 500 Mm in water were (480±5), (500±5), (470±5), (480±5) AND (510±10), respectively.
# [4] = system: P. pastoris YGLY 21058 strain; experiment: Fermentability of sorbitol and maltitol determined by HPLC; type: cell-based, Pichia pastoris; settings: BSGY; maltitol 50 g/L; methanol induction phase
# Procedure: The P. pastoris YGLY 21058 strain was cultivated in 1 L bioreactor and 50 g/L of maltitol was mixed in BSGY medium. The samples were taken at the beginning of fermentation, at the end of glycerol fed-batch before adding maltitol, and two different time-points in methanol induction phase, as shown in FIG. 3. The supernatant was separated by the centrifugation at 13,000 rpm for 1 minutes using micro-centrifuge. The samples properly diluted with distilled water were filtered using 0.2 μm-filter and the residual concentrations of sorbitol and maltitol were determined by HPLC using AMINEX HPX-87H column. The residence times (RTs) for sorbitol and maltitol were 11.5 and 9.3 min respectively. The data were shown in FIG. 3 as two independent runs of cultivation.
Molecule,Fermentability category from colony formation on the plate [1],Growth on M agar [1],Index of cell lysis (double stranded DNA released into culture medium) [2],Intact GIP molecule after 80 h-induction (SDS-PAGE) [2],Osmolality of solution [3],Robustness of Pichia production strains ([2]; methanol induction phase of cultivation),Consumption / fermentability in fed-batch fermentation (residual concentration by HPLC) [4]
O=C[C@@H](O)[C@H](O)[C@H](O)CO [D-Arabinose],strict non-fermentable substrates,−,much lower than that of control,intact GIP molecule was maintained,,,
O=C(O)[C@H](O)[C@@H](O)[C@H](O)[C@H](O)CO [D-Gluconate],very slow colony formation,+,,,,,
"O=C1O[C@H](CO)[C@@H](O)[C@H](O)[C@H]1O [D-Glucono-1,5-lactone]",strict non-fermentable substrates,−,,,,,
O=C[C@H](O)[C@@H](O)[C@H](O)[C@H](O)CO [D-Glucose],,+++,,,568±0 mOsm/kg,,
OC[C@H]1O[C@H](O[C@H]2[C@H](O)[C@@H](O)[C@H](O)O[C@@H]2CO)[C@H](O)[C@@H](O)[C@@H]1O [D-Maltose],strict non-fermentable substrates,−,,,,significantly improved the robustness,
OC[C@H]1O[C@H](OCC2O[C@@H](O)[C@H](O)[C@@H](O)[C@@H]2O)[C@H](O)[C@@H](O)[C@H]1O (stereo partly drawn) [D-Melibiose],very slow colony formation,+,,intact GIP molecule was maintained,500±5 mOsm/kg,,
O=C(O)[C@]1(O)C[C@@H](O)[C@@H](O)[C@H](O)C1 [D-Quinic acid],strict non-fermentable substrates,−,,,480±5 mOsm/kg,,
OC[C@H]1O[C@H](OC[C@H]2O[C@H](O[C@]3(CO)O[C@H](CO)[C@@H](O)[C@@H]3O)[C@H](O)[C@@H](O)[C@@H]2O)[C@H](O)[C@@H](O)[C@H]1O [D-Raffinose],,++,,,,,
OC[C@@H](O)[C@@H](O)[C@@H](O)CO [D-Ribitol],strict non-fermentable substrates,−,,,,,
O=C[C@H](O)[C@H](O)[C@H](O)CO [D-Ribose],very slow colony formation,+,much lower than that of control,intact GIP molecule was maintained,470±5 mOsm/kg,,
OC[C@@H](O)[C@@H](O)[C@H](O)[C@@H](O)CO [D-Sorbitol],,+++,,,544±3 mOsm/kg,,actively metabolized; also recorded: highly fermentable
O=C[C@H](O)[C@@H](O)[C@H](O)CO [D-Xylose],very slow colony formation,+,,,,,
OCC(O)CO [Glycerol],,+++,,,541±3 mOsm/kg,,
OC[C@H](O)C(O)[C@@H](O)CO [L-Arabitol],strict non-fermentable substrates,−,,,,,
O=C(CO)[C@@H](O)[C@H](O)[C@@H](O)CO [L-Sorbose],very slow colony formation,+,,intact GIP molecule was maintained,480±5 mOsm/kg,,
OC[C@@H](O)[C@H](O)[C@@H](O)CO [Xylitol],strict non-fermentable substrates,−,,,,,
O[C@H]1[C@H](O)[C@@H](O)[C@H](O)[C@@H](O)[C@H]1O [myo-Inositol],very slow colony formation,+,much lower than that of control,intact GIP molecule was maintained,510±10 mOsm/kg,,
"OC[C@H]1O[C@H](O[C@H]2O[C@H](CO)[C@@H](O)[C@H](O)[C@H]2O)[C@H](O)[C@@H](O)[C@@H]1O [α,α-Trehalose]",,++,,,,,
Inulin,very slow colony formation,+,,,,,
